One assay has as its system LYPLA1. In words: competitive ABPP of pPAFAH versus proteome off-targets – biochemical, gel-based, FP-Rh fluorescence, mouse, HTS hit compounds, selectivity assay for pPAFAH inhibitor project, late-stage follow-up (AID 588773). The conditions noted are these: at 10 µM.
For another assay, the system named is FAAH. The description is as above. The conditions noted are these: stronger effect = higher value.
For another assay, the system named is ABHD3. The description is as above. The conditions noted are these: at 10 µM.
For the next assay, the target named is ABHD4 (UniProt Q8VD66). Described as above. The conditions noted are these: at 10 µM.
Sequence of ABHD4 (Q8VD66 whole entry, looked up): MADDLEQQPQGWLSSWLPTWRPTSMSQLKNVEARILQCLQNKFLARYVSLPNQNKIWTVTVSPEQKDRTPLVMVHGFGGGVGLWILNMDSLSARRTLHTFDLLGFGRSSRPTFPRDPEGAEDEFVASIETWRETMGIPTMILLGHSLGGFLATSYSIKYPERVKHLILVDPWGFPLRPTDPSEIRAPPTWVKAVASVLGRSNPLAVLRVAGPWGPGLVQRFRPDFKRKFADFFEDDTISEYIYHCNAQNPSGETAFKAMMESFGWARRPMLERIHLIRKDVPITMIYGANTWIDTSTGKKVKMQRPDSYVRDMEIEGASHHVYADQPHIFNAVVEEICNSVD
Assay [1] concerns the target Monoglyceride lipase (Mus musculus) (UniProt O35678). The description is as above. The conditions noted are these: MAGL; for inhibition: stronger effect = higher value.
Assay [2] has as its target Platelet-activating factor acetylhydrolase (Mus musculus) (UniProt Q60963). Described as above. The conditions noted are these: pPAFAH, stronger effect = higher value.
The test system of the next assay is LYPLA2. Described as above. The conditions noted are these: at 10 µM.
In another assay the test system is ABHD6. Described as above. The conditions noted are these: for inhibition: stronger effect = higher value.
Assay in assay [3]: as above
The conditions noted are these: MW 30 kDa protein, stronger effect = higher value.

Molecules are shown by their SMILES. Activity calls are given as the source filed them.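 Rule for the calls: active = inhibition of plasma PAF acetylhydrolase at a set limit or more at 0.1 µM, with tenfold selectivity over all off-targets; inactive = inhibition below the limit or weaker selectivity.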

Sequence of Monoglyceride lipase (Mus musculus) (O35678 whole entry, looked up): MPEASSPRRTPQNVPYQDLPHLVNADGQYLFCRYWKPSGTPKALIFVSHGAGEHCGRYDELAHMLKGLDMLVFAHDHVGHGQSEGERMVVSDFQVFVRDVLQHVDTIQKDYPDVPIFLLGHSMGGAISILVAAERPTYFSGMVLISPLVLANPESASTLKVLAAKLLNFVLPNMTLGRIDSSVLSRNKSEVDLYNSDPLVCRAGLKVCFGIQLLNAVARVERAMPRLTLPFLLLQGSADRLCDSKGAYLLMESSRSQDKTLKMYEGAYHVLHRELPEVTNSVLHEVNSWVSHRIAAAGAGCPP
Sequence of Platelet-activating factor acetylhydrolase (Mus musculus) (Q60963 whole entry, looked up): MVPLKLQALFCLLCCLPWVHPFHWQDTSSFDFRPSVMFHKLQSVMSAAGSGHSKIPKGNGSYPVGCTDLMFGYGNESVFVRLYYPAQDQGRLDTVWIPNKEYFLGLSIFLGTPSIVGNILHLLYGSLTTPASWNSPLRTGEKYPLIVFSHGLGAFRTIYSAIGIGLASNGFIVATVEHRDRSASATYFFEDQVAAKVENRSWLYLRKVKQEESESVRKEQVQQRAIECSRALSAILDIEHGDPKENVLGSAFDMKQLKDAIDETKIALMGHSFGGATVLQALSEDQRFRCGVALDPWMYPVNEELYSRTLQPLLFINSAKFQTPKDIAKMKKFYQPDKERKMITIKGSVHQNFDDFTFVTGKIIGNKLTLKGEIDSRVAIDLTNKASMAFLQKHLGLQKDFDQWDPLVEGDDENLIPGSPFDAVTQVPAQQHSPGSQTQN

Usually inhibition stands for the change of the read-out against control, counted positive when it falls. Turning to `O=C(Oc1ccc([N+](=O)[O-])cc1)N1CCC(N2CCCCC2)CC1`, the outcome with LYPLA1, in the assay on ABHD3, at ABHD4 and in the assay on LYPLA2 was inactive. The inhibition in the assay on FAAH (at 10 µM) is 60% (inactive); with FAAH (inhibition, at 1 µM), 30%; in assay [1] (at 10 µM), 45% (inactive); in [1] (inhibition, at 1 µM), 23%; in assay [2] (at 10 µM), 92% (inactive); in [2] (inhibition, at 1 µM), 66%. The inhibition with ABHD6 (at 10 µM) was 48% (inactive); in the assay on ABHD6 (inhibition, at 1 µM), 22%; in [3] (at 1 µM) it was 22%.

On to `O=C(Oc1ccc(-c2ccccc2)cc1)N1CCOCC1`, for which the outcome in the assay on LYPLA1, in the assay on ABHD3, on ABHD4 and with LYPLA2 was inactive. Also, the inhibition in the assay with FAAH (at 10 µM) was 83% (inactive); in the assay with FAAH (inhibition, at 0.1 µM) it was 23%; in the assay on FAAH (inhibition, at 1 µM) it was 31%; in [1] (at 10 µM) it was 20% (inactive); in assay [1] (inhibition, at 1 µM) it was 6%; in assay [2] (at 10 µM) it was 94% (inactive). Further, the inhibition was 32% in assay [2] (inhibition, at 0.1 µM); 78% in assay [2] (inhibition, at 1 µM); 25% (inactive) in the assay with ABHD6 (at 10 µM); 12% in the assay with ABHD6 (inhibition, at 0.1 µM); 16% in the assay with ABHD6 (inhibition, at 1 µM); 21% in assay [3] (at 0.1 µM). For the same molecule, the inhibition in assay [3] (at 1 µM) was 27%.

As to `O=C(/C=C/c1cccs1)c1cc(Br)ccc1OC(=O)N1CCOCC1`, the result (in the assay on LYPLA1; in the assay with ABHD3; at ABHD4; in [1] (at 10 µM); in the assay with LYPLA2; in the assay with ABHD6 (at 10 µM)) was inactive. Further, the inhibition in the assay on FAAH (at 10 µM) was 61% (inactive); in the assay with FAAH (inhibition, at 1 µM), 18%; in assay [2] (at 10 µM), 75% (inactive); in assay [2] (inhibition, at 1 µM) it was 56%.

As to `CN(C)C(=O)Oc1noc2cc(Cl)ccc12`, the outcome in the assay with LYPLA1, in the assay on ABHD3, on ABHD4 and in the assay on LYPLA2 was inactive. For the same molecule, the inhibition is 100% in the assay with FAAH (at 10 µM); 100% with FAAH (inhibition, at 0.1 µM); 100% in the assay with FAAH (inhibition, at 1 µM); 33% (inactive) in assay [1] (at 10 µM); 2% in assay [1] (inhibition, at 1 µM); 100% (inactive) in assay [2] (at 10 µM). Besides, the inhibition is 47% in [2] (inhibition, at 0.1 µM); 92% in [2] (inhibition, at 1 µM); 65% (inactive) in the assay with ABHD6 (at 10 µM); 21% in the assay on ABHD6 (inhibition, at 0.1 µM); 26% in the assay with ABHD6 (inhibition, at 1 µM); 6% in assay [3] (at 1 µM).

Take `O=C(Oc1ccc(-c2ccccc2)cc1)N1CCCCC1`: the outcome with LYPLA1, with ABHD3, at ABHD4 and in the assay with LYPLA2 was inactive. In addition, the inhibition in the assay with FAAH (at 10 µM) was 99% (inactive); in the assay with FAAH (inhibition, at 1 µM), 56%; in [1] (at 10 µM), 40% (inactive); in assay [1] (inhibition, at 1 µM) it was 36%; in [2] (at 10 µM) it was 95% (inactive); in [2] (inhibition, at 0.1 µM), 35%. Also, the inhibition in assay [2] (inhibition, at 1 µM) is 33%; with ABHD6 (at 10 µM), 53% (inactive); in the assay on ABHD6 (inhibition, at 1 µM), 34%; in [3] (at 0.1 µM) it was 18%; in assay [3] (at 1 µM) it was 60%.

Consider `CCCCOC(=O)c1ccc(OC(=O)N2CCOCC2)cc1`, for which the result (in the assay on LYPLA1; in the assay on ABHD3; on ABHD4; in [1] (at 10 µM); in the assay with LYPLA2) was inactive. The inhibition in the assay with FAAH (at 10 µM) was 62% (inactive); in the assay with FAAH (inhibition, at 1 µM) it was 30%; in assay [2] (at 10 µM) it was 90% (inactive); in [2] (inhibition, at 0.1 µM), 5%; in assay [2] (inhibition, at 1 µM), 70%; in the assay with ABHD6 (at 10 µM), 22% (inactive). In the assay with ABHD6 (inhibition, at 1 µM), this molecule showed an inhibition of 9%.

For `O=C(Oc1ccc(Oc2ccccc2)cc1)N1CCC(O)CC1`, the result (in the assay with LYPLA1; in the assay on ABHD3; at ABHD4; in assay [1] (at 10 µM); with LYPLA2) was inactive. In addition, the inhibition in the assay on FAAH (at 10 µM) is 17% (inactive); in the assay on FAAH (inhibition, at 1 µM), 2%; in [2] (at 10 µM) it was 92% (inactive); in assay [2] (inhibition, at 1 µM), 62%; in the assay on ABHD6 (at 10 µM) it was 39% (inactive); in the assay on ABHD6 (inhibition, at 1 µM), 19%.

As to `O=C(CCCSc1ccc(Cl)cc1)Nc1cc(S(=O)(=O)N2CCOCC2)ccc1O`, the outcome in the assay on LYPLA1, with ABHD3, on ABHD4 and in the assay on LYPLA2 was inactive. Moreover, the inhibition is 25% (inactive) in the assay on FAAH (at 10 µM); 27% (inactive) in [1] (at 10 µM); 88% (inactive) in [2] (at 10 µM); 18% in assay [2] (inhibition, at 0.1 µM); 50% in assay [2] (inhibition, at 1 µM); 26% (inactive) in the assay with ABHD6 (at 10 µM).

For the molecule `O=C(Oc1nsnc1N1CCOCC1)N1CCOCC1`, the result (in the assay on LYPLA1; in the assay with ABHD3; at ABHD4; in [1] (at 10 µM); with LYPLA2) was inactive. Further, the inhibition with FAAH (at 10 µM) was 85% (inactive); in the assay with FAAH (inhibition, at 1 µM) it was 80%; in assay [2] (at 10 µM) it was 86% (inactive); in [2] (inhibition, at 1 µM), 28%; in the assay with ABHD6 (at 10 µM), 39% (inactive); in the assay with ABHD6 (inhibition, at 1 µM), 29%. The inhibition in [3] (at 0.1 µM) was found to be 4%; in assay [3] (at 1 µM) it was 23%.

For the origin of these results see PubChem BioAssay AID588773 (The Scripps Research Institute Molecular Screening Center, 2011).
